The target in series [1] is T1, c-Myc/Max (Homo sapiens, UniProt P01106+P61244). The experiment in a line: Inhibition of Myc-Max (unknown origin) expressed in human 22rv1 cells harboring UBE2C promoter assessed as reduction in ARV7 level after 1 day by luciferase reporter gene assay. It counts as cell-based.
Series [2] deals with T1, c-Myc/Max. The experiment in a line: Inhibition of Myc-Max (unknown origin) expressed in human LNCAP cells assessed as reduction in transcriptional activity at 25 uM after 1 day by luciferase reporter gene assay relative to control. It counts as cell-based.
Series [3] concerns the target T1, c-Myc/Max. Briefly: Inhibition of Myc-Max (unknown origin) expressed in human 22rv1 cells harboring UBE2C promoter assessed as reduction in ARV7 level at 25 uM after 1 day by luciferase reporter gene assay relative to control. It counts as cell-based.
For series [4], the system named is LNCaP. Briefly: Cytotoxicity against human LNCAP cells assessed as reduction in cell viability after 96 hrs by prestoblue assay. In kind it is functional, cell-based.
The target of series [5] is T1, c-Myc/Max. Briefly: Inhibition of biotin-labeled EBOX oligonucleotide binding to GST-tagged Myc (368 to 454 residues)/His-tagged Max (23 to 102 residues) (unknown origin) expressed in Escherichia coli BL21(DE3) at 500 uM incubated up to 600 secs by biolayer interferometry assay.
The target in series [6] is T1, c-Myc/Max. Briefly: Inhibition of full length Myc-Max (unknown origin) expressed in human PC3 cells at 12.5 to 25 uM after 24 hrs by luciferase reporter gene based mammalian two-hybrid assay. In kind it is cell-based.
For series [7], the target named is T1, c-Myc/Max. Briefly: Inhibition of Myc-Max (unknown origin) expressed in human 22rv1 cells harboring UBE2C promoter assessed as reduction in ARV7 level at 12.5 to 25 uM after 48 hrs by Western blot analysis. It counts as cell-based.
For series [8], the system named is LNCaP. The experiment in a line: Induction of apoptosis in human LNCAP cells assessed as increase in PARP cleavage at 6.25 to 25 uM after 48 hrs by Western blot analysis. In kind it is functional, cell-based.
Series [9] concerns the target T1, c-Myc/Max. The experiment in a line: Inhibition of Myc-Max (unknown origin) expressed in human LNCAP cells assessed as reduction in transcriptional activity after 1 day by luciferase reporter gene assay. In kind it is cell-based.
Another series has as its system HO15.19. Briefly: Cytotoxicity against rat HO15.19 cells assessed as reduction in cell viability at 3 uM after 96 hrs by prestoblue assay. It counts as cell-based. As to conditions: ho15.19, 96 h.
Series [10] addresses T1, c-Myc/Max. The experiment in a line: Inhibition of biotin-labeled EBOX oligonucleotide binding to GST-tagged Myc (368 to 454 residues)/His-tagged Max (23 to 102 residues) (unknown origin) expressed in Escherichia coli BL21(DE3) incubated up to 600 secs by biolayer interferometry assay.
In series [11] the test system is LNCaP. The experiment in a line: Cytotoxicity against human LNCAP cells assessed as reduction in cell viability at 3 uM after 96 hrs by prestoblue assay relative to control. In kind it is functional.
Series [12] in a line: Cytotoxicity against rat HO15.19 cells assessed as reduction in cell viability at 25 uM after 96 hrs by prestoblue assay relative to control. It counts as cell-based. As to conditions: read-out: INH.

Active and inactive are the calls of the source. The calls are words filed in the database; no cut-off is given here.

T1 sequence (P01106 whole entry): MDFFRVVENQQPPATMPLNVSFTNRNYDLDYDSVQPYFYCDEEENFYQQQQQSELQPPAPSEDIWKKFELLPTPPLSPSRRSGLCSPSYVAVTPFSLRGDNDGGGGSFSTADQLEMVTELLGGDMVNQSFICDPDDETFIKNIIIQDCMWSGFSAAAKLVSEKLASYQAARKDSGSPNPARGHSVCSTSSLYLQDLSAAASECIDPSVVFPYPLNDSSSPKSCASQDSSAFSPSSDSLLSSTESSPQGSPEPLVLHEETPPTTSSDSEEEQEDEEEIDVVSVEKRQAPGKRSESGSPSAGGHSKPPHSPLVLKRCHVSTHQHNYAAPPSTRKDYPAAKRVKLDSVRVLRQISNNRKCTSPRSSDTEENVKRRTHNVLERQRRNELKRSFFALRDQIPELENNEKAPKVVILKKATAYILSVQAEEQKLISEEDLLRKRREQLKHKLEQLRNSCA
T1 sequence (P61244 whole entry): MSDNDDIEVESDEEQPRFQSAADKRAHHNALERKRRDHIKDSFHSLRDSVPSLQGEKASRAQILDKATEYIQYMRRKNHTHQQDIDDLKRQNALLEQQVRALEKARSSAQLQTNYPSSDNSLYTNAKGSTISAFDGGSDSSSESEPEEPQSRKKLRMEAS

Regarding `CS(=O)(=O)Nc1ccccc1C(=O)OCc1cc(=O)oc2cc(O)ccc12`, the inhibition entry is “Dose-dependent effect” on c-Myc/Max [1] and 53% on c-Myc/Max [2].
With `NC(=O)c1ccsc1NC(=O)Nc1cccc(C(F)(F)F)c1`, the inhibition entry is “Dose-dependent effect” on c-Myc/Max [1], 73% on c-Myc/Max [3] and 95% at c-Myc/Max [2].
For `CCc1ccc(/C=C2\SC(=S)NC2=O)cc1`, the inhibition result at c-Myc/Max [1] was “Dose-dependent effect”; at c-Myc/Max [3], 70%; on c-Myc/Max [2] it was 91%. The IC50 in the series on LNCaP [4] was 18.3 µM.
As to `CC(=O)Nc1ccc(Nc2cc(Cl)c(C(F)(F)F)cc2[N+](=O)[O-])cc1`, the results for the inhibition entry at c-Myc/Max [1], on c-Myc/Max [3] and on c-Myc/Max [2] were “Dose-dependent effect”, 51% and 81%, respectively.
As to `O=[N+]([O-])c1ccc(Nc2ccccc2-c2ccccc2)c2nonc12`, the values for the inhibition entry at c-Myc/Max [1] and on c-Myc/Max [2] were “Dose-dependent effect” and 88%, respectively. The inhibition result on c-Myc/Max [5] and on c-Myc/Max [7] was “Active” in each case. Moreover, the inhibition entry at c-Myc/Max [6] is “inactive”. In addition, the IC50 in the series on LNCaP [4] was 8.7 µM.
For `S=C(NCc1ccc(Cl)c(Cl)c1)Nc1cccnc1`, the inhibition entry on c-Myc/Max [1] is “Dose-dependent effect”; at c-Myc/Max [3], 50%; on c-Myc/Max [2], 73%.
On to `O=C1NC(=S)S/C1=C\c1ccccc1C(F)(F)F`, for which the inhibition result at c-Myc/Max [1] is “Dose-dependent effect”; at c-Myc/Max [3], 71%; at c-Myc/Max [2], 98%. For the same compound, the inhibition entry at c-Myc/Max [5] and at c-Myc/Max [7] was “Active” in each case. In addition, the outcome in the series on LNCaP [8] was Active. Also, the half-inhibitory concentration (IC50) at c-Myc/Max [9] amounted to 22.7 µM; with LNCaP [4], 11.1 µM.
Take `O=C(CN1C(=O)NC2(CCCC2)C1=O)Nc1cccc(C(F)(F)F)c1`: the results for the inhibition entry on c-Myc/Max [1] and on c-Myc/Max [2] were “Dose-dependent effect” and 65%, respectively.
In the case of `FC(F)(F)c1cc(NC(=S)NCc2ccccc2)cc(C(F)(F)F)c1`, in the series on HO15.19, the Activity entry is recorded as “Non-Toxic”. The inhibition result on c-Myc/Max [1] was “Dose-dependent effect”; at c-Myc/Max [3] it was 94%; on c-Myc/Max [2], 106%; at c-Myc/Max [10], “Dose-dependent effect”. The inhibition entry on c-Myc/Max [5], on c-Myc/Max [6] and on c-Myc/Max [7] was “Active” throughout. Besides, the outcome in the series on LNCaP [8] was Active. In addition, the inhibition at 3 µM in the series with LNCaP [11] came to 70%. The values for the IC50 on c-Myc/Max [9] and in the series with LNCaP [4] were 8.9 µM and 2.5 µM, respectively. Moreover, the cytotoxicity at 96 h, 25 µM in series [12] is at most 40%.
In the case of `O=C1/C(=C/c2cccs2)SC(=S)N1c1cccc(O)c1`, the inhibition entry on c-Myc/Max [1] was “Dose-dependent effect”; on c-Myc/Max [2], 65%.
Take `CC(C)(C)[C@H]1CCc2sc(C(=O)N3CCC(C(N)=O)CC3)cc2C1`: the values for the inhibition result at c-Myc/Max [1], at c-Myc/Max [3] and at c-Myc/Max [2] were “Dose-dependent effect”, 58% and 73%, respectively.
With `CN1C(=O)/C(=C\C=C\c2ccco2)SC1=S`, the inhibition result is “Dose-dependent effect” at c-Myc/Max [1], 64% at c-Myc/Max [3] and 78% at c-Myc/Max [2].
